{"source": "patent WO2016071431A1", "about": "“A combination for cancer therapy” (Stichting Katholieke Universiteit, priority 2014, dated 2016)", "key": {"B16-F10 melanoma [1]": {"system": "B16-F10 melanoma", "test": "Intratumoral treatment of subcutaneous B16-F10 melanoma, tumor growth", "type": "in vivo, mouse", "conditions": "stand-alone, 0.3mg (10mg/kg) or 1mg (30mg/kg) intratumoral, three times per week for four weeks, C57BL/6 mice"}, "sialic acid expression": {"system": "sialic acid expression", "test": "Sialic acid expression in tumor tissue and other organs after intratumoral injections (lectin flow cytometry)", "type": "in vivo, mouse", "conditions": "after 3 intratumoral injections"}, "[2]": {"system": "Human monocyte-derived dendritic cells", "test": "TLR-mediated maturation of human monocyte-derived dendritic cells (CD80)", "type": "cell-based", "conditions": "six donors, four days with P-3Fax-Neu5Ac, then 24 hours polyI/C, R848 or LPS"}, "[3]": {"system": "Mouse bone marrow-derived dendritic cells", "test": "TLR-mediated maturation of mouse bone marrow-derived dendritic cells (CD80)", "type": "cell-based", "conditions": "three days with P-3Fax-Neu5Ac, then 24 hours LPS, CpG or polyI/C"}, "B16-F10 melanoma [4]": {"system": "B16-F10 melanoma", "test": "Effect on B16-F10 tumor growth after depletion of effector immune cells", "type": "in vivo, mouse"}, "mammalian cells": {"system": "mammalian cells", "conditions": "Rillahan et al, 2012, cited from earlier work"}, "9464D neuroblastoma": {"system": "9464D neuroblastoma", "test": "Intratumoral treatment of subcutaneous 9464D neuroblastoma, tumor growth", "type": "in vivo, mouse", "conditions": "10mg/kg or 20m/kg intratumoral three times per week until day 50, C57BL/6 mice"}, "CD8+ cells": {"system": "CD8+ cells", "test": "Tumor infiltration of immune cells after intratumoral injections (flow cytometry)", "type": "in vivo, mouse", "conditions": "after 3 intratumoral injections, 0.3mg"}, "mouse melanoma cells": {"system": "mouse melanoma cells", "conditions": "cited from earlier work"}, "melanoma cells": {"system": "melanoma cells", "conditions": "Büll et al, 2013; cited from earlier work"}, "B16-F10 melanoma [5]": {"system": "B16-F10 melanoma", "test": "Combination with CpG in B16-F10 melanoma, tumor growth and survival", "type": "in vivo, mouse", "conditions": "CpG combination study; P-3Fax-Neu5Ac 0.3mg intratumoral three times per week and/or CpG 100μg peritumoral day 14 and 21"}, "tumor cells": {"system": "tumor cells", "conditions": "Büll et al, 2013; cited from earlier work"}}, "note": "Entries after “also recorded” stand apart in the source; their conditions may differ. Like-named read-outs stand apart in the source and are kept apart here. In the oligonucleotide strings, read from the 5' end, every base follows the letter of its sugar. An asterisk marks phosphorothioate; unmarked linkages are phosphodiester. Other units and linkages are bracketed, terminal groups are in braces. A string of capitals states the bases alone. [s2] = phosphorodithioate linkage; d = 2'-deoxy (DNA)", "data": [{"molecule": "COC(=O)C1(OC(C)=O)OC(C(OC(C)=O)C(COC(C)=O)OC(C)=O)C(NC(C)=O)C(OC(C)=O)C1F", "note": "(stereo not shown) [P-3Fax-Neu5Ac]", "values": [{"measurement": "tumor growth", "setting": "B16-F10 melanoma [1]", "value": "hamper B 16-F 10 melanoma growth; also recorded: antagonizes tumor growth in a dose-dependent manner"}, {"measurement": "tumor growth", "setting": "B16-F10 melanoma [1]; listed as glycomimetic", "value": "delayed tumor growth modestly"}, {"measurement": "sialic acid expression in tumor tissue", "setting": "sialic acid expression; 0.3mg or 1mg, MALII, SNA-I or PNA lectin", "value": "block sialic acid expression in the tumor mass; also recorded: reduction of sialic acid expression in the isolated tumor tissue"}, {"measurement": "sialic acid expression in other organs such as the spleen", "setting": "sialic acid expression; fluorescent sialic acid binding lectins", "value": "not other organs such as the spleen"}, {"measurement": "activation / maturation of dendritic cells (CD80 expression)", "setting": "[2]", "value": "enhances APC maturation with TLR ligands; also recorded: strongly enhances activation of dendritic cells"}, {"measurement": "activation / maturation of dendritic cells (CD80 expression)", "setting": "[3]", "value": "enhances APC maturation with TLR ligands; also recorded: strongly enhances activation of dendritic cells"}, {"measurement": "tumor growth suppression mediated by CD8+ cells", "setting": "B16-F10 melanoma [4]; B16-F10 melanoma model, CD8+ depleted versus non-depleted mice", "value": "mediated by effector CD8+ immune cells"}, {"measurement": "effect of sialic acid blockade on tumor growth upon CD4+ cell depletion", "setting": "B16-F10 melanoma [4]; CD4+ cell depletion, 0.3mg intratumoral three times per week", "value": "unaffected"}, {"measurement": "effect of sialic acid blockade on tumor growth upon CD8+ cell depletion", "setting": "B16-F10 melanoma [4]; CD8+ cell depletion, 0.3mg intratumoral three times per week", "value": "CD8+ cell depletion abrogated the effect of sialic acid blockade on tumor growth"}, {"measurement": "effect of sialic acid blockade on tumor growth upon K1.1+ cell depletion", "setting": "B16-F10 melanoma [4]; K1.1+ cell depletion, 0.3mg intratumoral three times per week", "value": "unaffected"}, {"measurement": "depletion of sialic acids from mammalian cells", "setting": "mammalian cells", "value": "deplete sialic acids from mammalian cells"}, {"measurement": "cellular cytotoxicity", "setting": "mammalian cells; mammalian cells", "value": "without causing cellular cytotoxicity"}, {"measurement": "tumor growth", "setting": "9464D neuroblastoma", "value": "hamper 9464D neuroblastoma growth"}, {"measurement": "infiltration of immune cells in the tumor", "setting": "CD8+ cells", "value": "enhanced infiltration of immune cells, especially CD8+ cells in the tumor"}, {"measurement": "expression of sialic acids in melanoma / cancer cells", "setting": "mouse melanoma cells; Büll et al, 2013, listed as glycomimetic", "value": "potently blocks sialic acid synthesis and expression in cancer cells"}, {"measurement": "duration of the blocking effect", "setting": "mouse melanoma cells; Büll et al, 2013", "value": "almost four days"}, {"measurement": "expression of sialic acids in melanoma / cancer cells", "setting": "mouse melanoma cells; Büll et al, 2013", "value": "blocks the expression of sialic acids in mouse melanoma cells with high efficiency"}, {"measurement": "growth of melanoma cells treated with the inhibitor before injection into mice", "setting": "melanoma cells", "value": "grow significantly slower"}, {"measurement": "median survival time / survival time", "setting": "B16-F10 melanoma [5]", "value": "slightly prolonged the survival time"}, {"measurement": "adhesion and migration of tumor cells", "setting": "tumor cells", "value": "can impair adhesion and migration of tumor cells"}]}, {"molecule": "CpG: CpG oligodeoxynucleotide immune adjuvant; more preferred: phosphodithioate backbone and sequence 5'-TCCATGACGTTCCTGATGCT-3' (DNA dT[s2]dC[s2]dC[s2]dA[s2]dT[s2]dG[s2]dA[s2]dC[s2]dG[s2]dT[s2]dT[s2]dC[s2]dC[s2]dT[s2]dG[s2]dA[s2]dT[s2]dG[s2]dC[s2]dT)", "values": [{"measurement": "median survival time / survival time", "setting": "B16-F10 melanoma [5]", "value": "no effect on tumor growth and median survival time"}, {"measurement": "tumor growth", "setting": "B16-F10 melanoma [5]", "value": "almost no effect on tumor growth"}]}]}
